One may read the IC50 as the midpoint of a concentration-inhibition curve.

Experiment [1] concerns mice. As to the kind of experiment: Histamine-induced pruritus. It counts as in vivo. The following applies: 25 mg/kg i.p. As for the experimental part:
Intradermal injection of histamine induced scratching bouts in the amount of 62.11 ± 9.4. […].
The surface (around 2 cm^2) of the mice’s nape was shaved at least 2 days prior to experiments. On the day of the experiment, mice were individually placed in plastic chambers (15 × 15 × 30 cm) and after the 30 min habituation period, they were given an intradermal (i.d.) injection of histamine dihydrochloride (10 µmol/site) or chloroquine (CQ, 200 µg/site), which were dissolved in physiological saline and administrated in the constant volume of 20 μL. Immediately after the injection, scratching (series of movements considered as a single scratching bout) of the injected site by the hind paw was counted for 60 min or 30 min after histamine and CQ administration, respectively. Before pruritogens injection different groups of mice were treated i.p. with vehicle (10 mL/kg, negative control) or the dose–response of investigated compound.
Figure 9 The effect of compound 6 and reference compound pyrilamine (Pyr) on the number of scratching bouts during 60 min-long observation in histamine-induced pruritus (A) and 30 min-long observation in chloroquine-induced pruritus (B). The tested compound or vehicle (1% solution of Tween 80) was administered intraperitoneally (i.p.) 30 min before the intradermal (i.d.) injection of histamine or chloroquine. The results are presented as bar plots showing the mean ± SEM. Statistical analysis: one-way ANOVA followed by Dunnett’s post hoc test, * p < 0.05, ** p < 0.01, *** p < 0.001, n = 8–10 mice per group.

The target of experiment [2] is T1, hH4R (Homo sapiens, UniProt Q9H3N8). As to the kind of experiment: β-arrestin recruitment assay (LiveBLAzer, Tango-H4-bla U2OS cells). Also noted: expressed in transfected cells; host or cells: Tango-H4-bla U2OS cells. The experiment is classed as cell-based. On the procedure:
Compounds were tested using LiveBLAzer^TM assay and Tango-H4-bla U2OS cells, allowing the estimation of the percentage of β-arrestin recruitment in response to tested treatments.
All used media and reagents except DMSO and tested compounds were purchased from ThermoFisher Scientific, Waltham, MA, USA. DMSO was from CarlRoth (Karlsruhe, Germany) and histamine was from Sigma Aldrich (Darmstadt, Germany). […] The day before the experiment cells were collected from the culture flask with trypsin and seeded in 384 well black-wall, clear-bottom plate (PerkinElmer, Waltham, MA, USA) in concentration 10,000 cells/well in FreeStyle medium. After 24 h of incubation, the cells were checked under the microscope and the dilutions of tested compounds were prepared and added to the wells. In agonist mode compounds were added to the wells and plates were placed in the incubator (HERAcell240, Heraeus, Hanau, Germany) for 16 h. In antagonist mode, first, the compounds were added to the wells, plates were incubated for 30 min, then histamine solution (corresponding to EC80—500 nM) was added and plates were put in the incubator for 16 h. After this time β-lactamase substrate mixture was prepared and added to wells (8 µL/well). Cells were incubated for 2 h at room temperature in the dark then the signal was read using an EnSpire microplate reader (PerkinElmer, Waltham, MA, USA). Drawing of dose-dependent curves and IC50 calculation for compounds were made using GraphPad Prism 6 (GraphPad Software, San Diego, CA, USA).

Experiment [3] has as its target T1, hH4R. As to the kind of experiment: cAMP accumulation assay (LANCE Ultra cAMP, CHO-K1 cells stably expressing hH4R). The experiment is classed as cell-based. Details: expressed in transfected cells. Conditions: antagonist mode. Background: cAMP levels reflect the balance of adenylyl cyclase and phosphodiesterase activity.
For experiment [4], the system named is rats. In words: Carrageenan-induced inflammatory pain and oedema. The experiment is classed as in vivo. From the text: We wanted to confirm the activity in an additional model of inflammation in another species. To evaluate the influence of compound 6 on acute inflammation, such as oedema and hyperalgesia, we tested it in the carrageenan-induced inflammation model in rats. […] As oedema is one of the most significant symptoms of inflammation resulting from the release of inflammatory mediators, we may conclude that compound 6 has some anti-inflammatory activity. […] The response to mechanical stimuli was observed as the pain withdrawal threshold (Figure 8B) decreased from the value of 138.33 ± 1.05 g (baseline) before carrageenan injection to the value of 120.83 ± 2.0 g (87.3% of the baseline) 3 h after injection, 125.83 ± 2.51 (90.9% of the baseline) 6 h after injection, and 124.17 ± 2.0 (89.7% of the baseline). […] The results obtained confirmed its analgesic activity in mechanical inflammatory hyperalgesia. […] We claim that the effect may result from the inhibition of the release of inflammatory mediators and subsequent inhibition of peripheral and central sensitization. […] The effect was not as persistent as in the mechanical hyperalgesia and was observed only 1, 2 and 3 h after induction of inflammation.
The procedure used was described previously. Briefly, the inflammation and paw oedema was induced by subplantar injection of 0.1 mL of 1% carrageenan (made in PBS) into the right hind paw of the rat. The paw volume was measured by the dislocation of the water column of the plethysmometer (Plethysmometer 7140, Ugo Basile). The hyperalgesic response to mechanical stimuli was measured using Analgesy Meter 37215, Ugo Basile. The intensity of the applied force, in grams, was recorded when the paw was withdrawn (withdrawal threshold). Moreover, the hyperalgesic response to thermal stimuli was determined by using a plantar test apparatus (Commat Ltd., Ankara, Turkey). The latency to the heat stimulus was automatically recorded. Three subsequent applications of the heating stimulus were done, separated by 1- to 2-min intervals, and the mean of these measures was taken.
Figure 8 Effect of compound 6 on carrageenan-induced oedema (A), mechanical hyperalgesia (B) and thermal hyperalgesia (C) developed after subplantar injection of 1% carrageenan in rats. Data are expressed as means ± SEM for 5–6 animals. Time 0—the initial reaction considered as the nociceptive reaction before carrageenan administration. Statistical significance compared to vehicle-treated animals: * p < 0.05, ** p < 0.01, *** p < 0.001, **** p < 0.0001. Statistical analysis: two-way ANOVA post hoc Bonferroni test. Statistical significance compared to initial value (0 time point) in the vehicle-treated group: # p < 0.05, ## p < 0.01, ### p < 0.0001. Statistical analysis: one-way ANOVA followed by Dunnett’s post hoc test.

Experiment [5] addresses H1R (Homo sapiens, UniProt P35367). In words: Preliminary study at H1R.

T1 sequence (Q9H3N8 whole entry): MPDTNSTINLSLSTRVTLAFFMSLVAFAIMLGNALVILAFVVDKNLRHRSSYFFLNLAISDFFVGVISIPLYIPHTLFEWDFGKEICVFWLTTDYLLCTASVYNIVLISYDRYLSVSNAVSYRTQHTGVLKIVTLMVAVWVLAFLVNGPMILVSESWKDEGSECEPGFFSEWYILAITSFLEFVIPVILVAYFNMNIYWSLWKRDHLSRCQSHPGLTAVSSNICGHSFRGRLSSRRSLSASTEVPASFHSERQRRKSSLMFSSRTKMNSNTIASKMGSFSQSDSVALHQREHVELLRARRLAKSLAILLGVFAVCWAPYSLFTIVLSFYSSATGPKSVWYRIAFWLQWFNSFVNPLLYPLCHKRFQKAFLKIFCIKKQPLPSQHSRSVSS
Chain of H1R (P35367 whole entry, species assumed): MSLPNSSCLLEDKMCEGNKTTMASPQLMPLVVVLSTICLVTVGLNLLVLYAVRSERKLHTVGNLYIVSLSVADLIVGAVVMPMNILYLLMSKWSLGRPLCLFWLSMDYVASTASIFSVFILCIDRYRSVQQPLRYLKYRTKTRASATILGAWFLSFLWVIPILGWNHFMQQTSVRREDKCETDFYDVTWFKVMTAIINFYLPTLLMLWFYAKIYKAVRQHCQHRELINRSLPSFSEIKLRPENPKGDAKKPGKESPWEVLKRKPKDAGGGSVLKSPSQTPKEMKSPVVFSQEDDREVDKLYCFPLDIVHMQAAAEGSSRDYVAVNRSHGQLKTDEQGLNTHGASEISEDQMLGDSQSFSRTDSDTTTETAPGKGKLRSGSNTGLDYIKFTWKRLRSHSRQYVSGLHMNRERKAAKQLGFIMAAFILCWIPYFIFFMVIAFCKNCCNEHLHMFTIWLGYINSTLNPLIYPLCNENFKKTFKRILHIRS

For the compound `CN1CCN(c2nc(N)nc(CC3CCCC3)n2)CC1` [Compound 6, 4-(Cyclopentylmethyl)-6-(4-methylpiperazin-1-yl)-1,3,5-triazin-2-amine], the “Scratch bouts, histamine-induced pruritus, % of the control value” in experiment [1] (60 min observation) is 13.47 % of the control value. The “Number of scratch bouts, histamine-induced pruritus” value in experiment [1] (60 min observation (control 62.11 ± 9.4)) is recorded as 8.37 ± 1.96 scratch bouts. The IC50 in experiment [2] (antagonist mode, histamine 500 nM (EC80), Tango-H4-bla U2OS cells, read-out: β-arrestin hH4R IC50 ± SEM) came out at 10 ± 1 nM. For the same compound, in experiment [2] (at 10 µM, antagonist mode), the “β-arrestin hH4R % of max. Antagonist Activity at 10 µM” value is given as 101%. For the same compound, in experiment [2] (calculated from IC50 by Leff–Dougall variant of Cheng–Prusoff equation, read-out: pKb β-arrestin ± SEM (converted)), the Kb was 1.62 nM. In experiment [3], the “cAMP hH4R % of max. Antagonist Activity at 10 µM” value is listed as 100%. Moreover, the “Pain withdrawal threshold (mechanical hyperalgesia)” value in experiment [4] (50 mg/kg, 3 h after carrageenan (vehicle 87.3%)) is reported as 122.1 % of the baseline; in experiment [4] (50 mg/kg, 6 h after carrageenan (vehicle 90.9%)), 119.5 % of the baseline; in experiment [4] (50 mg/kg, third time point (time not given, presumably 24 h; vehicle 89.7%)), 111.7 % of the baseline; in experiment [4] (75 mg/kg, 3 h after carrageenan) it was 107.5 % of the baseline; in experiment [4] (75 mg/kg, 6 h after carrageenan) it was 113.2 % of the baseline; in experiment [4] (75 mg/kg, third time point (time not given, presumably 24 h)), 113.8 % of the baseline. Further, the “Paw volume increase (carrageenan oedema)” value in experiment [4] (75 mg/kg, 1 h after carrageenan (vehicle 48.9%)) stood at 22.1%; in experiment [4] (75 mg/kg, 2 h after carrageenan (vehicle 79.3%)), 46.3%; in experiment [4] (75 mg/kg, 3 h after carrageenan (vehicle 113.0%)) it was 72.6%; in experiment [4] (75 mg/kg, 6 h after carrageenan (vehicle 115.2%)) it was 76.8%; in experiment [4] (75 mg/kg, 24 h after carrageenan (vehicle 114.1%)), 55.8%. Moreover, the “Paw withdrawal latency (thermal hyperalgesia)” value is 129.5 % of baseline in experiment [4] (75 mg/kg, 1 h after inflammation induction (vehicle 62.44%)); 103.6 % of baseline in experiment [4] (75 mg/kg, 2 h after inflammation induction (vehicle 65.13%)); 86.3 % of baseline in experiment [4] (75 mg/kg, 3 h after inflammation induction (vehicle 45.63%)). Also, the “H1R activity at 10 µM” value in experiment [5] worked out at 0%.

(Values after article PMC10224356, “Trisubstituted 1,3,5-Triazines as Histamine H4 Receptor Antagonists with Promising Activity In Vivo” (Molecules, 2023).)
